{"source": "patent US20080045609A1", "about": "“METHODS AND THERAPEUTICS TO FACILITATE LIVER REPAIR” (priority 2006, published 2008)", "key": {"gene for TGF-β1": {"system": "gene for TGF-β1", "details": "bleomycin-induced model of lung fibrosis, exogenous interferon-γ; cited from earlier work"}, "lung fibroblasts": {"system": "lung fibroblasts", "details": "in vitro; cited from earlier work"}, "[1]": {"system": "progressive pulmonary fibrosis", "details": "patients with idiopathic pulmonary fibrosis, scleroderma or sarcoidosis resistant to three months of high-dose glucocorticoids; cited from earlier work"}, "[2]": {"system": "hepatic stellate cells (HSCs)", "details": "rat CCl4 model of liver damage; cited from earlier work"}, "[3]": {"system": "rat model of hypertension", "details": "cited from earlier work"}, "[4]": {"details": "human, in vivo; cited from earlier work"}, "NASH": {"system": "NASH", "test": "clinical trial in patients with moderately severe NASH", "format": "in vivo, human", "details": "subcutaneous delivery, monotherapy", "method": "The dosage and delivery mechanism for relaxin H2 is subcutaneous delivery of the molecule based on the earlier reports for the scleroderma trial. […] The dosage of relaxin H2 in the present trial is the most efficacious level that was used in the earlier reported scleroderma trial, a subcutaneous relaxin infusion rate of 25 μg/kg/day, with the mode of delivery via continuous subcutaneous delivery (e.g., through implantation of an osmotic pump). The simultaneous dosage of follistatin will be 50 μg/kg/day through subcutaneous delivery.\nA formulation comprised of rH2 relaxin and recombinant human follistatin 315 is used to improve prognosis and decrease on-going damage caused from on-going hepatic damage in patients diagnosed with moderately severe NASH. The measured end points are indicative of a decrease of reduction of area of damage in the liver and increased liver enzyme function. […]\nrH2 relaxin and follistatin administration are studied in a small patient population of NASH and an improvement in liver enzyme levels and liver function is measured as a primary end point. A decrease in on-going damage as determined by imaging techniques is also measured. […] In addition, elements such as diet and exercise are carefully monitored in the trial populations as these may impact on the improvement of the underlying metabolic disorder and potentially skew the results."}, "CCl4-exposed rats": {"system": "CCl4-exposed rats", "details": "cited from earlier work"}, "tumor cell": {"system": "tumor cell", "details": "in vitro or in vivo studies; cited from earlier work"}, "HSC": {"system": "HSC", "details": "cited from earlier work"}, "liver": {"system": "liver", "details": "cited from earlier work"}}}
{"substance": "interferon-γ", "values": [{"measurement": "transcription of the gene for TGF-β1", "setting": "gene for TGF-β1", "result": "down-regulated"}, {"measurement": "proliferation of lung fibroblasts", "setting": "lung fibroblasts", "result": "inhibits the proliferation of lung fibroblasts in a dose-dependent manner"}, {"measurement": "synthesis of protein in fibroblasts", "setting": "lung fibroblasts", "result": "reduces the synthesis of protein in fibroblasts"}]}
{"substance": "interferon γ-1b", "values": [{"measurement": "clinical efficacy in progressive pulmonary fibrosis", "setting": "[1]", "result": "effective"}]}
{"substance": "relaxin", "values": [{"measurement": "collagen deposition by hepatic stellate cells", "setting": "[2]", "result": "inhibit collagen deposition by hepatic stellate cells"}, {"measurement": "fibrosis associated with organ damage", "setting": "[3]", "result": "reversing cardiac and renal fibrosis"}, {"measurement": "adverse events", "setting": "[4]", "result": "few adverse events"}, {"measurement": "improvement versus vehicle (liver enzyme levels, liver function)", "setting": "NASH", "result": "significant improvement over those treated with vehicle"}]}
{"substance": "follistatin", "values": [{"measurement": "reduction in fibrosis", "setting": "CCl4-exposed rats; CCl4-exposed rats treated with the peptide", "result": 32, "unit": "%"}, {"measurement": "decrease of hepatocyte apoptosis", "setting": "CCl4-exposed rats; CCl4-exposed rats, during treatment, effect maximal at week 4", "result": 87, "unit": "%"}, {"measurement": "tumor cell growth", "setting": "tumor cell", "result": "did not accelerate tumor cell growth"}, {"measurement": "TGF-β-induced secretion of collagen", "setting": "HSC", "result": "inhibit TGF-β-induced secretion of collagen from HSC"}, {"measurement": "improvement versus vehicle (liver enzyme levels, liver function)", "setting": "NASH", "result": "significant improvement over those treated with vehicle"}, {"measurement": "liver weight", "setting": "liver; after hepatic resection", "result": "significantly increases liver weight"}, {"measurement": "cell replication and liver size", "setting": "liver; following partial hepatectomy", "result": "actively promote cell replication and increase liver size"}]}
